The text below walks through data of patent US10981893B2, “Therapeutic inhibitory compounds” (Attune Pharmaceuticals, Inc., priority 2015, dated 2021).

One may read the EC50 as the midpoint of the concentration-response curve. A higher EC50 goes with lower potency in that assay. Broadly, the IC50 is the concentration that gives 50% inhibition.

The target in assay [1] is kallikrein in human plasma (Homo sapiens (Human), UniProt P03952). Description: In vitro cellular assay / contact assay: kallikrein activity in ellagic acid-activated human plasma (Z-FR-2-AMC substrate). In kind it is biochemical. The conditions noted are these: human plasma activated with ellagic acid, 37° C. The protocol:
The ability of the compounds disclosed herein to inhibit cellular kallikrein activity was quantified and the respective EC50 value was determined.
Plasma kallikrein inhibitor C1NH (Athens Research & Technology, Cat #16-16-031509); Ellagic acid (Sigma, E2250); Substrate Z—FR-2-AMC (GL Biochem, Cat #55352); Nunc™ 96-Well Polypropylene MicroWell™ Plates (Nunc, Cat #267342)
All dilutions were prepared in an assay buffer comprising 50 mM Tris-HCl pH 7.2, 150 mM NaCl, and 0.01% Triton X-100.
Four fold serial dilutions were prepared from a 107.53 μM plasma kallikrein inhibitor C1NH stock solution, to yield ten solutions with concentrations between 20 μM and […]. Similarly, four fold serial dilutions were prepared from 10 mM stock solutions of various test compounds, to yield ten solutions with concentrations between 4 mM and 0.015 μM. The ten solutions of the test compounds, prepared by serial dilution, were further diluted 50-fold in the assay buffer.
Human plasma is thawed on ice and centrifuged for 15 min at 4° C. to remove platelets. A 1 mM stock solution of ellagic acid is diluted to 8 μM and mixed with human plasma, after removing platelets, at a ratio of 1:0.8. The mixture of human plasma and ellagic acid was further diluted 32-fold in the assay buffer, to yield the final mixture for use in the inhibition assay.
A 22.5 μL volume of the final mixture of human plasma and ellagic acid was added to a 96-well microwell plate and the plate was incubated for 15 min at 37° C.
The test compounds at various concentrations, also prepared by serial dilutions as described above, are added to the test wells. The volume of test compound added to each test well was 12.5 μL, to yield final concentrations of 20 μM, 5 μM, 1.25 μM, 312.5 nM, 78.125 nM, 19.531 nM, 4.883 nM, 1.221 nM, 0.305 nM, and 0.076 nM. Each test compound concentration was tested in duplicates.
In addition to the inhibitor control and test wells, the 96 well assay plate includes positive control wells which contained the mixture of human plasma and ellagic acid without C1NH inhibitor or test compounds, and background wells which contained neither the mixture of human plasma and ellagic acid nor the test compounds. The total volume of liquid in positive control and background wells was brought up to 35 μL, using the assay buffer.
The assay plate containing C1NH inhibitors and test compounds mixed with human plasma and ellagic acid and appropriate controls was incubated at 37° C. for 5 min. A 10 mM stock solution of substrate Z—FR-2-AMC was diluted to 133.2 μM in the assay buffer, and 15 μL of the diluted substrate was added to each well, to yield a final substrate concentration of 40 μM in each well. […]
The enzyme reaction was quantified by immediate kinetic reading of the assay plate using excitation/emission wavelengths of 330 nm/440 nm respectively. Fluorescence intensity was recorded for 60 min, using a time interval of 43 sec.
The inhibition activity of the test compounds were evaluated using the IC50 values, calculated according to the dose-response curve of the test compounds, fitted using the “log(inhibitor)-response(variable slope)” equation in GraphPadPrism software (GraphPad Software, Inc.).
The percentage inhibition was calculated using the following equation:
[formula] where, Mean(BG) is the average value of the fluorescence intensity of the background wells and Mean(PC) is the average value of the fluorescence intensity of the positive control wells. […]

The next assay deals with human Plasma Kallikrein (Homo sapiens (Human), UniProt P03952). Description: In vitro enzyme inhibition of human plasma kallikrein (Pro-Phe-Arg-AMC cleavage). In kind it is biochemical. The conditions noted are these: PFR-AMC substrate, 37° C., read-out: hPK IC50. The protocol: The ability of the compounds disclosed herein to inhibit human plasma kallikrein activity was quantified according to the procedures below.
A 10 mM solution of the test compound was made in DMSO. This solution was serially diluted 1:5 in DMSO to yield 2000, 400, 80, 16, 3.2, 0.64, 0.128, 0.0256 and 0.00512 μM compound test solutions. A control tube containing only DMSO is included. 16 μL of each compound test solution was combined with 384 μL of assay buffer (50 mM Tris-HCl pH 7.5, 150 mM NaCl, 0.01% Triton X-100) to yield a “4× test compound buffer stock”.
Separately, a 40 nM solution of human Plasma Kallikrein (Abcam) and a 93.6 μM solution Pro-Phe-Arg-AMC (Bachem) were made using assay buffer. These solutions are hereby refereed to as 4×hPK and 2×PFR-AMC, respectively.
60 μL of each 4× test compound buffer stock was combined with 60 μL of 4× hPK to yield 120 μL of “2× test compound buffer stock/2×hPK”. 50 μL was removed from this mixture and placed into duplicate wells on a Microfluor 1 Black U-bottom microtiter plate (Thermo Scientific). This plate was incubated for 5 minutes at 37° C. To each well, 50 μL of pre-warmed 2×PFR-AMC was added to start the enzymatic reaction. Cleavage of PFR-AMC was monitored in a Biotek Synergy H4 reader set at 37° C. Readings are taken every 43 seconds for 1 hour. The highest mean velocity over 20 reads (˜15 minutes) is used to calculate the IC50. The IC50 is calculated using the Gen5 (Biotek Instruments).
The ability of the compounds in Table 1 to inhibit human plasma kallikrein activity was determined and the data is shown in Table 3.

Sequence of kallikrein in human plasma (P03952 391-638 limits assumed): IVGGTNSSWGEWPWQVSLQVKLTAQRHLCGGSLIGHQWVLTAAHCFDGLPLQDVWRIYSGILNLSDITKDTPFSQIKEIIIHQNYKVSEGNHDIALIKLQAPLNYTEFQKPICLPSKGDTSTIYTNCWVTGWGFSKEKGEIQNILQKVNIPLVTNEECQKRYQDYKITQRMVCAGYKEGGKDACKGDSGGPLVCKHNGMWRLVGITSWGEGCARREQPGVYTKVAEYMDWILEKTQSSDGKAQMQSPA
Sequence of kallikrein in human plasma (P03952 20-390 partner limits assumed): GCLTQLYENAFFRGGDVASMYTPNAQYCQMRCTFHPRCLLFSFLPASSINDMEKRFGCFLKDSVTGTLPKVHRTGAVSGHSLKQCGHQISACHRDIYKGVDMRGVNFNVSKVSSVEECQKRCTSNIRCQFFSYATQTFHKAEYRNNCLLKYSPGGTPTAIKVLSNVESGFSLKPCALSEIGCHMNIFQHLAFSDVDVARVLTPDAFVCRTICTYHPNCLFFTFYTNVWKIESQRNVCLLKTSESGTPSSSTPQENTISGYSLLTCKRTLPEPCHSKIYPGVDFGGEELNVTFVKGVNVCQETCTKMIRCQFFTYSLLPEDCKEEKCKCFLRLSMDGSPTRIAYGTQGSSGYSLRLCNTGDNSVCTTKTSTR
Sequence of human Plasma Kallikrein (P03952 391-638 limits assumed): as the sequence (P03952 391-638 limits assumed) above
Sequence of human Plasma Kallikrein (P03952 20-390 partner limits assumed): as the sequence (P03952 20-390 partner limits assumed) above

On to `Cc1cc(N)nc(C)c1CNC(=O)c1cncc(Cc2ccc3ncc(Cl)cc3c2)c1` [Example 22, N-((6-amino-2,4-dimethylpyridin-3-yl)methyl)-5-((3-chloroquinolin-6-yl)methyl)nicotinamide], for which the EC50 in assay [1] was at most 100 nM. Further, the IC50 at human Plasma Kallikrein was at most 100 nM.

In assay [1], `Cc1nc(N)ccc1CNC(=O)c1ccnc(Cc2ccc(Cn3ccccc3=O)c(S(C)(=O)=O)c2)c1` [Example 23, N-((6-amino-2-methylpyridin-3-yl)methyl)-2-(3-(methylsulfonyl)-4-((2-oxopyridin-1(2H)-yl)methyl)benzyl)isonicotinamide] showed an EC50 of at most 100 nM. Moreover, the half-maximal inhibitory concentration (IC50) on human Plasma Kallikrein is at most 100 nM.

`Cc1cc(N)nc(C)c1CNC(=O)c1cncc(Cc2ccc3ncc(Cl)cc3c2)n1` [Example 25, N-((6-amino-2,4-dimethylpyridin-3-yl)methyl)-6-((3-chloroquinolin-6-yl)methyl)pyrazine-2-carboxamide] displayed an EC50 in assay [1] of at most 100 nM. For the same molecule, at human Plasma Kallikrein, the IC50 was at most 100 nM.

In assay [1], `CS(=O)(=O)c1cc(Cc2cc(C(=O)NCc3cnc4[nH]cc(Cl)c4c3)ccn2)ccc1Cn1ccccc1=O` [Example 29] yielded an EC50 of at most 100 nM. On human Plasma Kallikrein, the IC50 was at most 100 nM.
